Test results reported in PubChem BioAssay (NCI).
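In this assay, cells in 96-well plates receive the compound at five concentrations for 48 hours. Endpoints are linearly interpolated between the surrounding concentrations. GI50 is the concentration that inhibits growth by half. The concentration for full growth arrest is given as TGI.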

Tests used:
Experiment in all cases: NCI anticancer screen, dose series, 48 h
NCI-H226 lung = tested on: NCI-H226 lung
OVCAR-4 ovarian = tested on: OVCAR-4 ovarian
CAKI-1 renal = tested on: CAKI-1 renal
CCRF-CEM leukemia = tested on: CCRF-CEM leukemia
ACHN renal = tested on: ACHN renal
SN12C renal = tested on: SN12C renal
HS 578T breast = tested on: HS 578T breast
HCC-2998 colon = tested on: HCC-2998 colon
KM12 colon = tested on: KM12 colon
MCF7 breast = tested on: MCF7 breast
SK-MEL-28 melanoma = tested on: SK-MEL-28 melanoma
SF-539 CNS = tested on: SF-539 CNS
SW-620 colon = tested on: SW-620 colon
HOP-92 NSCLC = tested on: HOP-92 NSCLC
OVCAR-8 ovarian = tested on: OVCAR-8 ovarian
SF-268 CNS = tested on: SF-268 CNS
PC-3 prostate = tested on: PC-3 prostate
OVCAR-5 ovarian = tested on: OVCAR-5 ovarian
HCT-15 colon = tested on: HCT-15 colon
LOX IMVI melanoma = tested on: LOX IMVI melanoma
TK-10 renal = tested on: TK-10 renal
A549 NSCLC = tested on: A549 NSCLC
NCI/ADR-RES ovarian = tested on: NCI/ADR-RES ovarian
EKVX NSCLC = tested on: EKVX NSCLC
MDA-MB-435 = tested on: MDA-MB-435
RPMI-8226 leukemia = tested on: RPMI-8226 leukemia
K-562 leukemia = tested on: K-562 leukemia
SK-MEL-2 melanoma = tested on: SK-MEL-2 melanoma
UACC-257 melanoma = tested on: UACC-257 melanoma
COLO 205 colon = tested on: COLO 205 colon
HT29 colon = tested on: HT29 colon
U251 CNS = tested on: U251 CNS
A498 renal = tested on: A498 renal
HL-60(TB) leukemia = tested on: HL-60(TB) leukemia
786-0 renal = tested on: 786-0 renal
NCI-H460 lung = tested on: NCI-H460 lung
MDA-MB-468 breast = tested on: MDA-MB-468 breast
T-47D breast = tested on: T-47D breast
MDA-MB-231 breast = tested on: MDA-MB-231 breast
OVCAR-3 ovarian = tested on: OVCAR-3 ovarian
BT-549 breast = tested on: BT-549 breast
SK-MEL-5 melanoma = tested on: SK-MEL-5 melanoma
SR leukemia = tested on: SR leukemia
MOLT-4 leukemia = tested on: MOLT-4 leukemia
NCI-H23 lung = tested on: NCI-H23 lung
HCT-116 colon = tested on: HCT-116 colon
MALME-3M melanoma = tested on: MALME-3M melanoma
NCI-H522 lung = tested on: NCI-H522 lung
SF-295 CNS = tested on: SF-295 CNS
RXF 393 renal = tested on: RXF 393 renal
DU-145 prostate = tested on: DU-145 prostate
IGROV1 ovarian = tested on: IGROV1 ovarian
HOP-62 NSCLC = tested on: HOP-62 NSCLC
SNB-75 CNS = tested on: SNB-75 CNS
SNB-19 CNS = tested on: SNB-19 CNS
M14 melanoma = tested on: M14 melanoma
UO-31 renal = tested on: UO-31 renal
UACC-62 melanoma = tested on: UACC-62 melanoma

## O=C(NO)c1ccc(-c2nc3ccc4[nH]ncc4c3c3c2CCCC3)cc1
NCI-H226 lung
  GI50: 296 nM
  TGI: 3090 nM
OVCAR-4 ovarian
  GI50: 706 nM
  TGI: 6380 nM
CAKI-1 renal
  GI50: 260 nM
  TGI: 6810 nM
CCRF-CEM leukemia
  GI50: 361 nM
  TGI: > 100000 nM
ACHN renal
  GI50: 193 nM
  TGI: 5960 nM
SN12C renal
  GI50: 281 nM
  TGI: 3390 nM
HS 578T breast
  GI50: 191 nM
  TGI: 1300 nM
HCC-2998 colon
  GI50: 300 nM
  TGI: 1390 nM
KM12 colon
  GI50: 391 nM
  TGI: 13700 nM
MCF7 breast
  GI50: 344 nM
  TGI: 3570 nM
SK-MEL-28 melanoma
  GI50: 299 nM
  TGI: 1030 nM
SF-539 CNS
  GI50: 168 nM
  TGI: 455 nM
SW-620 colon
  GI50: 245 nM
  TGI: > 77900 nM
HOP-92 NSCLC
  GI50: 426 nM
  TGI: 6110 nM
OVCAR-8 ovarian
  GI50: 300 nM
  TGI: 13500 nM
SF-268 CNS
  GI50: 298 nM
  TGI: 1600 nM
PC-3 prostate
  GI50: 424 nM
  TGI: > 67200 nM
OVCAR-5 ovarian
  GI50: 479 nM
  TGI: 3930 nM
HCT-15 colon
  GI50: 250 nM
  TGI: 8570 nM
LOX IMVI melanoma
  GI50: 306 nM
  TGI: 1320 nM
TK-10 renal
  GI50: 261 nM
  TGI: 10400 nM
A549 NSCLC
  GI50: 671 nM
  TGI: > 100000 nM
NCI/ADR-RES ovarian
  GI50: 1030 nM
  TGI: 21000 nM
EKVX NSCLC
  GI50: 480 nM
  TGI: 3260 nM
MDA-MB-435
  GI50: 340 nM
  TGI: 1490 nM
RPMI-8226 leukemia
  GI50: 1650 nM
  TGI: > 44600 nM
K-562 leukemia
  GI50: 495 nM
  TGI: > 100000 nM
SK-MEL-2 melanoma
  GI50: 247 nM
  TGI: 792 nM
UACC-257 melanoma
  GI50: 1290 nM
  TGI: > 23200 nM
COLO 205 colon
  GI50: 255 nM
  TGI: 1480 nM
HT29 colon
  GI50: 455 nM
  TGI: 9840 nM
U251 CNS
  GI50: 287 nM
  TGI: 4970 nM
A498 renal
  GI50: 254 nM
  TGI: 2640 nM
HL-60(TB) leukemia
  GI50: 339 nM
  TGI: 2980 nM
786-0 renal
  GI50: 307 nM
  TGI: 1210 nM
NCI-H460 lung
  GI50: 486 nM
  TGI: 2490 nM
MDA-MB-468 breast
  GI50: 97.9 nM
  TGI: 279 nM
T-47D breast
  GI50: 196 nM
  TGI: 1750 nM
MDA-MB-231 breast
  GI50: 350 nM
  TGI: 1490 nM
OVCAR-3 ovarian
  GI50: 377 nM
  TGI: 11000 nM
BT-549 breast
  GI50: 187 nM
  TGI: 680 nM
SK-MEL-5 melanoma
  GI50: 240 nM
  TGI: 1020 nM
SR leukemia
  GI50: 117 nM
MOLT-4 leukemia
  GI50: 244 nM
  TGI: 942 nM
NCI-H23 lung
  GI50: 316 nM
  TGI: 1180 nM
HCT-116 colon
  GI50: 119 nM
  TGI: 33800 nM
MALME-3M melanoma
  GI50: 513 nM
  TGI: 1730 nM
NCI-H522 lung
  GI50: 154 nM
  TGI: 990 nM
SF-295 CNS
  GI50: 880 nM
  TGI: 9760 nM
RXF 393 renal
  GI50: 103 nM
  TGI: 508 nM
DU-145 prostate
  GI50: 407 nM
  TGI: > 34900 nM
IGROV1 ovarian
  GI50: 318 nM
  TGI: 3110 nM
HOP-62 NSCLC
  GI50: 253 nM
  TGI: 5210 nM
SNB-75 CNS
  GI50: 207 nM
  TGI: 875 nM
SNB-19 CNS
  GI50: 288 nM
  TGI: 1740 nM
M14 melanoma
  GI50: 415 nM
  TGI: 1780 nM
UO-31 renal
  GI50: 599 nM
  TGI: 8480 nM
UACC-62 melanoma
  GI50: 237 nM
  TGI: 1450 nM
